Data reported in patent US10611742B2, “4-oxo-4,5-dihydrothiazole derivative, preparation method and use thereof” (Institute of Pharmacology and Toxicology Academy of …, priority 2015, dated 2020).

What was measured:
Assay type in all cases: cell-based
[1] = system: enterovirus EV71 (SZ-98 strain); assay: anti-EV71 activity, preventive effect on Vero cell (CPE inhibition)
Protocol: (§1) Test principle: Vero cell, MRC-5 cell, and RD cell were used as host of virus, respectively, and samples were tested for their inhibition of cytopathic effect (CPE) caused by virus.
(§2) 1. Virus strain: enterovirus EV71 (SZ-98 strain, provided by Chinese Center for Disease Control and Prevention), Vero cell (provided by the Cell Bank of Chinese Academy of Sciences), MRC-5 cell (provided by the Cell Bank of Chinese Academy of Sciences), and RD cell (provided by the Cell Bank of Chinese Academy of Sciences), were subjected to passage culture, respectively, and stored at −80° C.
(§3) 2. Sample treatment: a test sample (Compounds 1-14 and positive control agent) was dissolved in dimethyl sulfoxide (DMSO) to prepare a stock solution, which was stored at −20° C. The stock solution was diluted with DMEM medium (Gibco Company) containing 2% fetal bovine serum (Gibco Company) to prepare a 100 μM solution before use, and was 3-fold diluted with the medium to obtain 8 diluted concentrates.
(§4) 3. Positive control agent: Con1 (pitstop2) (purchased from AmyJet Scientific Inc., Abcam), a broad-spectrum antiviral inhibitor.
(§5) 4. Test method: • 4.1 Therapeutic effect: the cells were seeded on a 96-well culture plate, and cultured in a 5% CO2, 37° C. incubator for 24 h. About 100 TCID50 enterovirus EV71 was added to each well. After adsorption at 37° C. for 1 h, the virus solution was discarded, and a drug was added at different diluted concentrates, respectively. Meanwhile, virus control and cell control were set, and cultured at 37° C. […] The virus-inhibition rate of a sample at each concentration was calculated based on the chemiluminescent value, the sample concentration was used as abscissa, and the inhibition rate was used as ordinate, and S-Curve fitting was performed by using Origin software. Half maximal inhibitory concentration (IC50) of each sample for enterovirus EV71 was calculated based on the fitting results. Median toxic concentration (TC50) was determined by the same method. […] To each well, a drug was added at a different diluted concentration, then the cells were cultured at 37° C. for 2 h, and then the drug was discarded. About 100 TCID50 enterovirus EV71 was added to each well, adsorbed at 37° C. for 1.5 h, then the virus solution was discarded, and a maintenance medium free of drug was added. Meanwhile, virus control and cell control were set, and cultured at 37° C. […] The virus-inhibition rate of a sample at each concentration was calculated, and half maximal inhibitory concentration (IC50), median toxic concentration (TC50), and selection index (SI) of each sample for enterovirus EV71 were calculated. The methods for determining and calculating them were as described in Item 4.1

[2] = system: enterovirus EV71 (SZ-98 strain); assay: anti-EV71 activity, therapeutic effect on RD cell (CPE inhibition, Celltiter Glo)
Protocol: as §1, §2, §3, §4, §5

[3] = median toxic concentration on RD cell; conditions: human, RD cells; for CC50: read-out: TC50 (the source's name); for CC50 at 2 h: Table 2-2 (preventive effect), read-out: TC50
Protocol: as §2, §3, §5

[4] = system: enterovirus EV71 (SZ-98 strain); assay: anti-EV71 activity, therapeutic effect on MRC-5 cell (CPE inhibition, Celltiter Glo); conditions: MRC5
Protocol: as §1, §2, §3, §4, §5

[5] = median toxic concentration on MRC-5 cell; conditions: human, MRC-5 cells, Table 1-2 (therapeutic effect), read-out: TC50 (the source's name)
Protocol: as §2, §3, §5

[6] = system: enterovirus EV71 (SZ-98 strain); assay: anti-EV71 activity, preventive effect on RD cell (CPE inhibition)
Protocol: as §1, §2, §3, §4, §5

[7] = system: enterovirus EV71 (SZ-98 strain); assay: anti-EV71 activity, therapeutic effect on Vero cell (CPE inhibition, Celltiter Glo); conditions: EV71 (SZ-98 strain), therapeutic effect on Vero cell; read-out: IC50
Protocol: as §1, §2, §3, §4, §5

[8] = median toxic concentration on Vero cell; conditions: African green monkey, Vero cells; for CC50: Table 1-1 (therapeutic effect), read-out: TC50 (the source's name); for CC50 at 2 h: Table 2-1 (preventive effect), read-out: TC50
Protocol: as §2, §3, §5

[9] = system: clathrin-mediated endocytosis of transferrin; assay: inhibition of clathrin-mediated endocytosis of transferrin in HeLa cells (fluorescence microscope); conditions: for inhibitory effect on endocytosis of transferrin (in words): 1.25 to 40 μmol/L; for inhibition at 20 µM: Homo sapiens, 20 μM compound, read-out: Inhibition rate
Protocol: 1. Experiment principle: transferrin was a key protein for clathrin-mediated endocytosis. Therefore, by determining the effect of a compound on transferrin in HeLa cell, the inhibitory effect of the compound on clathrin-mediated endocytosis could be evaluated. 2. Sample treatment: a test compound was dissolved in DMSO to prepare a stock solution, which was stored at −20° C. The stock solution was diluted with HEPES buffer (25 mm HEPES, 20 mm Glucose, 1% BSA, sterile water) to prepare a solution with an initial concentration of […] before use, and was 2-fold diluted with the buffer to obtain 6 diluted concentrations from 1.25 to 40 μmol/L. 4. Test method: HeLa cells (provided by the Cell Bank of Chinese Academy of Sciences) were seeded on a 24-well culture plate coated with 0.1 mg/ml polylysine, a serum-free medium DMEM (Gibco Company) was added at 500 μl/well, and the cells were cultured for one night. To each well, 0.5 μl a test compound at a different diluted concentration or 0.1 v/v % DMSO was added, then the pretreatment was performed for 15 min, and then 20 μg/ml alexa^568 transferrin (2 μl) (TF, SIGMA-ALDRICH Company) was added, and the incubation was carried out at 37° C. for 15 min. The resultant mixture was then washed with Live Cell Imaging Solution (LCIS, Invitrogen Company) and an acid at a low pH ([…] NaCl solution containing 0.5% acetic acid) for 30 s, respectively, followed by fixing with cold methanol, and was observed under fluorescence microscope.

SMILES | IC50 [1] [µM] | IC50 ([2]; EV71 (SZ-98 strain)) [µM] | CC50 ([3]; Table 1-3 (therapeutic effect)) [µM] | CC50 at 2 h [3] [µM] | IC50 [4] [µM] | CC50 [5] [µM] | IC50 [6] [µM] | IC50 [7] [µM] | CC50 [8] [µM] | CC50 at 2 h [8] [µM] | anti-EV71 activity (in words) [2] | IC50 ([2]; Enterovirus, EV71) [µM] | CC50 [3] [µM] | endocytosis of transferrin at 20 μM (in words) [9] | inhibitory effect on endocytosis of transferrin (in words) [9] | inhibition at 20 µM [9] [%]
O=C1N=C(NS(=O)(=O)c2cccc3ccccc23)S/C1=C\c1ccc(Cl)cc1Cl [Compound 1, Naphthalene-1-sulfonic acid [5-(2,4-dichloro-benzylidene)-4-oxo-4,5-dihydro-thiazol-2-yl] amide] | > 7.41 | > 7.41 | 12.8 | 12.8 | > 7.41 | 12.8 | > 7.41 | 7.41 | 10.7 | 10.7 |  |  |  |  |  | 
COc1cc(/C=C2\SC(NS(=O)(=O)c3cccc4ccccc34)=NC2=O)ccc1O [Compound 2, Naphthalene-1-sulfonic acid [5-(3-methoxy-4-hydroxy-benzylidene)-4-oxo-4,5-dihydro-thiazol-2-yl] amide] | > 7.41 | > 7.41 | 22.2 | 22.2 | > 7.41 | 22.2 | > 7.41 | > 7.41 | 12.8 | 12.8 |  |  |  |  |  | 
O=C1N=C(NS(=O)(=O)c2cccc3ccccc23)S/C1=C\c1ccc(Cl)cc1 [Compound 4, Naphthalene-1-sulfonic acid [5-(4-chloro-benzylidene)-4-oxo-4,5-dihydro-thiazol-2-yl] amide] | > 2.47 | 5.75 |  | 12.8 | > 7.41 | 12.8 | > 7.41 | > 2.47 | 4.28 | 4.28 | better anti-EV71 activity | 5.75 | 12.8 |  |  | 
O=C1N=C(NS(=O)(=O)c2cccc3ccccc23)S/C1=C\c1cccc(O)c1 [Compound 6, Naphthalene-1-sulfonic acid [5-(3-hydroxy-benzylidene)-4-oxo-4,5-dihydro-thiazol-2-yl] amide] | > 22.2 | 15.4 | 38.5 | 38.5 | > 22.2 | 38.5 | > 22.2 | > 22.2 | 38.5 | 38.5 | better anti-EV71 activity |  |  |  |  | 
COc1ccc(/C=C2\SC(NS(=O)(=O)c3cccc4ccccc34)=NC2=O)cc1O [Compound 7, Naphthalene-1-sulfonic acid [5-(3-hydroxy-4-methoxy-benzylidene)-4-oxo-4,5-dihydro-thiazol-2-yl] amide] | > 2.47 | > 0.82 | 3.56 | 3.56 | > 2.47 | 10.7 | > 0.82 | > 2.47 | 7.41 | 7.41 |  |  |  |  |  | 
O=C1N=C(NS(=O)(=O)c2cccc3ccccc23)S/C1=C\c1ccc(O)c(Br)c1 [Compound 8, Naphthalene-1-sulfonic acid [5-(3-bromo-4-hydroxy-benzylidene)-4-oxo-4,5-dihydro-thiazol-2-yl] amide] | > 7.41 | 22.2 | 66.7 | 66.7 | > 2.47 | 9.54 | > 22.2 | > 7.41 | 12.8 | 12.8 | better anti-EV71 activity |  |  |  |  | 
COc1cccc(OC)c1/C=C1\SC(NS(=O)(=O)c2cccc3ccccc23)=NC1=O [Compound 9, Naphthalene-1-sulfonic acid [5-(2,6-dimethoxy-benzylidene)-4-oxo-4,5-dihydro-thiazol-2-yl] amide] | > 22.2 | > 7.41 | 12.8 | 12.8 | > 22.2 | 38.5 | > 7.41 | > 22.2 | 38.5 | 38.5 |  |  |  |  |  | 
O=C1N=C(NS(=O)(=O)c2cccc3ccccc23)S/C1=C\c1ccc(F)cc1Cl [Compound 10, Naphthalene-1-sulfonic acid [5-(2-chloro-4-fluoro-benzylidene)-4-oxo-4,5-dihydro-thiazol-2-yl] amide] | > 7.41 | > 7.41 | 15.4 | 15.4 | > 7.41 | 12.8 | 5.14 | > 7.41 | 10.7 | 10.7 |  |  |  | completely inhibited | dose-dependent | 100
O=C1N=C(NS(=O)(=O)c2cccc3ccccc23)S/C1=C\c1ccc(-c2ccccc2)cc1 [Compound 11, Naphthalene-1-sulfonic acid (5-biphenyl-4-yl-methylene-4-oxo-4,5-dihydro-thiazol-2-yl) amide] | > 0.82 | > 22.2 | 46.2 | 46.2 | > 7.41 | 32 | > 22.2 | > 0.82 | 3.56 | 3.56 |  |  |  |  |  | 
CC(=O)Nc1ccc(/C=C2\SC(NS(=O)(=O)c3cccc4ccccc34)=NC2=O)cc1 [Compound 12, Naphthalene-1-sulfonic acid [5-(4-acetylamino-benzylidene)-4-oxo-4,5-dihydro-thiazol-2-yl] amide] | > 22.2 | > 22.2 | 38.5 | 38.5 | > 22.2 | 38.5 | > 22.2 | > 22.2 | 32 | 32 |  |  |  |  |  | 
O=C1N=C(NS(=O)(=O)c2cccc3ccccc23)SC1Nc1ccccc1 (stereo not drawn) [Compound 13, Naphthalene-1-sulfonic acid (4-oxo-5-phenylamino-4,5-dihydro-thiazol-2-yl) amide] | > 22.2 | > 22.2 | 66.7 | 66.7 | > 22.2 | 66.7 | 7.41 | > 22.2 | 66.7 | 66.7 |  |  |  |  |  | 50
O=C1N=C(NS(=O)(=O)c2cccc3ccccc23)SC1C(c1ccccc1)c1ccc(Br)cc1 (stereo not drawn) [Compound 14, Naphthalene-1-sulfonic acid {5-[(4-bromo-phenyl)-phenyl-methyl]-4-oxo-4,5-dihydro-thiazol-2-yl} amide] | > 22.2 | 15.4 | 38.5 | 38.5 | 15.4 | 32 | 22.2 | 15.4 | 32 | 32 | better anti-EV71 activity |  |  | completely inhibited | dose-dependent | 100
